Data as given in publication PMC5923274 (Drug Design, Development and Therapy, 2018).
Read-outs that look alike come from different tables or passages of the source. Each block holds one molecule with its values, some of them ahead of it.

Tests used:
recombinant Nampt [1] = target: T1, recombinant Nampt (Homo sapiens, UniProt P43490); conditions: cited from earlier work
184A1 = test: MTT assay, 184A1 cells, 72 h; assay type: cell-based; conditions: read-out: IC50 (nM) ± SD (n) 184A1, 184A1 noncancerous Nampt-dependent human breast epithelium cells, n=4
recombinant Nampt [2] = target: T1, recombinant Nampt; test: Recombinant Nampt inhibition assay; assay type: biochemical; conditions: read-out: IC50, inhibition of recombinant Nampt activity; colorimetric assay
[3] = continuous intravenous infusion for 4 consecutive days, patients; cited from earlier work

T1 sequence (P43490 whole entry): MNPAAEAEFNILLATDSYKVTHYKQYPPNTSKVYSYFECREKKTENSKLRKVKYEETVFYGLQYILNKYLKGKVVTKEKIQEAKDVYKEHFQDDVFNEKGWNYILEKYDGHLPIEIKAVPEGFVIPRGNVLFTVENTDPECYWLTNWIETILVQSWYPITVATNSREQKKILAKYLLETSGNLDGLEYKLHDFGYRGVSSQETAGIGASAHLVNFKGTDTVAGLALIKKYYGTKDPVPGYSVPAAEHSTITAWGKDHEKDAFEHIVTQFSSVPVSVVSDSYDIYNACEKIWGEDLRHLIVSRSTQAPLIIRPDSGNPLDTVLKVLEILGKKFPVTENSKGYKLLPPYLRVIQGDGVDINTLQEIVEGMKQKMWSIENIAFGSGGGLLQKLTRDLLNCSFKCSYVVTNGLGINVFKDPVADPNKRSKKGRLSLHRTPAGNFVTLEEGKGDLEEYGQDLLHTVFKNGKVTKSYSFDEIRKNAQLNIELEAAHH

Molecule: 1-(4′-(trans-3″-(3‴-pyridyl)acrylamido)butyl)-1,7-dicarbadodecaborane [MC4-PPEA]
IC50 (recombinant Nampt [1]; read-out: IC50, inhibition of Nampt, previously reported): 4.2 nM
fold higher Nampt inhibitory activity than FK866 (recombinant Nampt [1]; relative to FK866): ~ 100 fold

IC50 (recombinant Nampt [2]): 6.8 nM
Molecule: 1-(hydroxymethyl)-7-(4′-(trans-3″-(3′″-pyridyl)acrylamido)butyl)-1,7-dicarbadodecaborane [hm-MC4-PPEA]
IC50 (184A1): 1.9 ± 0.4 nM

Molecule: O=C(/C=C/c1cccnc1)NCCCCC1CCN(C(=O)c2ccccc2)CC1 [FK866]
dose-limiting toxicity [3]: thrombocytopenia
